According to PubChem BioAssay (NCI):
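In this assay, cells in 96-well plates receive the compound at five concentrations for 48 hours. Endpoints are linearly interpolated between the surrounding concentrations. GI50: concentration for 50% inhibition of growth. TGI: concentration producing complete growth inhibition.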

Legend:
Experiment in all cases: NCI tumour cell line growth inhibition, 48 h
HS 578T breast = system: HS 578T breast
RPMI-8226 leukemia = system: RPMI-8226 leukemia
K-562 leukemia = system: K-562 leukemia
RXF 393 renal = system: RXF 393 renal
MCF7 breast = system: MCF7 breast
UO-31 renal = system: UO-31 renal
SN12C renal = system: SN12C renal
SF-539 CNS = system: SF-539 CNS
DU-145 prostate = system: DU-145 prostate
786-0 renal = system: 786-0 renal
COLO 205 colon = system: COLO 205 colon
SK-MEL-5 melanoma = system: SK-MEL-5 melanoma
M14 melanoma = system: M14 melanoma
SW-620 colon = system: SW-620 colon
HL-60(TB) leukemia = system: HL-60(TB) leukemia
MDA-MB-435 = system: MDA-MB-435
SNB-19 CNS = system: SNB-19 CNS
HCC-2998 colon = system: HCC-2998 colon
PC-3 prostate = system: PC-3 prostate
SK-MEL-2 melanoma = system: SK-MEL-2 melanoma
SR leukemia = system: SR leukemia
CCRF-CEM leukemia = system: CCRF-CEM leukemia
HOP-62 NSCLC = system: HOP-62 NSCLC
HT29 colon = system: HT29 colon
UACC-62 melanoma = system: UACC-62 melanoma
MDA-MB-468 breast = system: MDA-MB-468 breast
KM12 colon = system: KM12 colon
CAKI-1 renal = system: CAKI-1 renal
LOX IMVI melanoma = system: LOX IMVI melanoma
TK-10 renal = system: TK-10 renal
SK-MEL-28 melanoma = system: SK-MEL-28 melanoma
MDA-MB-231 breast = system: MDA-MB-231 breast
A549 NSCLC = system: A549 NSCLC
NCI-H522 lung = system: NCI-H522 lung
HCT-15 colon = system: HCT-15 colon
NCI-H460 lung = system: NCI-H460 lung
SF-295 CNS = system: SF-295 CNS
U251 CNS = system: U251 CNS
SK-OV-3 ovarian = system: SK-OV-3 ovarian
HOP-92 NSCLC = system: HOP-92 NSCLC
IGROV1 ovarian = system: IGROV1 ovarian
ACHN renal = system: ACHN renal
OVCAR-5 ovarian = system: OVCAR-5 ovarian
A498 renal = system: A498 renal
MALME-3M melanoma = system: MALME-3M melanoma
OVCAR-3 ovarian = system: OVCAR-3 ovarian
HCT-116 colon = system: HCT-116 colon
OVCAR-4 ovarian = system: OVCAR-4 ovarian
BT-549 breast = system: BT-549 breast
NCI/ADR-RES ovarian = system: NCI/ADR-RES ovarian
T-47D breast = system: T-47D breast
NCI-H226 lung = system: NCI-H226 lung
UACC-257 melanoma = system: UACC-257 melanoma
NCI-H23 lung = system: NCI-H23 lung
SF-268 CNS = system: SF-268 CNS
SNB-75 CNS = system: SNB-75 CNS
EKVX NSCLC = system: EKVX NSCLC
MOLT-4 leukemia = system: MOLT-4 leukemia
OVCAR-8 ovarian = system: OVCAR-8 ovarian

CCC(C)S(=O)(=O)c1oc(-c2ccc(C)cc2)nc1S(=O)(=O)c1ccccc1 (stereo not drawn)
GI50 (HS 578T breast): 2.18 µM
TGI (HS 578T breast): 7.36 µM
GI50 (RPMI-8226 leukemia): 2.16 µM
TGI (RPMI-8226 leukemia): 8.17 µM
GI50 (K-562 leukemia): 1.38 µM
TGI (K-562 leukemia): > 100 µM
GI50 (RXF 393 renal): 1.48 µM
TGI (RXF 393 renal): 3.1 µM
GI50 (MCF7 breast): 1.2 µM
TGI (MCF7 breast): 2.86 µM
GI50 (UO-31 renal): 1.52 µM
TGI (UO-31 renal): 2.85 µM
GI50 (SN12C renal): 1.72 µM
TGI (SN12C renal): 3.34 µM
GI50 (SF-539 CNS): 1.67 µM
TGI (SF-539 CNS): 3.03 µM
GI50 (DU-145 prostate): 1.98 µM
TGI (DU-145 prostate): 4.57 µM
GI50 (786-0 renal): 1.67 µM
TGI (786-0 renal): 3.37 µM
GI50 (COLO 205 colon): 2.67 µM
TGI (COLO 205 colon): 6.02 µM
GI50 (SK-MEL-5 melanoma): 2.99 µM
TGI (SK-MEL-5 melanoma): 11.6 µM
GI50 (M14 melanoma): 1.73 µM
TGI (M14 melanoma): 3.83 µM
GI50 (SW-620 colon): 1.13 µM
TGI (SW-620 colon): 2.47 µM
GI50 (HL-60(TB) leukemia): 1.6 µM
TGI (HL-60(TB) leukemia): 4.91 µM
GI50 (MDA-MB-435): 1.74 µM
TGI (MDA-MB-435): 3.85 µM
GI50 (SNB-19 CNS): 12.9 µM
TGI (SNB-19 CNS): 25.5 µM
GI50 (HCC-2998 colon): 1.74 µM
TGI (HCC-2998 colon): 3.3 µM
GI50 (PC-3 prostate): 3.14 µM
TGI (PC-3 prostate): 11.2 µM
GI50 (SK-MEL-2 melanoma): 4.1 µM
TGI (SK-MEL-2 melanoma): 16.2 µM
GI50 (SR leukemia): 2.73 µM
TGI (SR leukemia): > 100 µM
GI50 (CCRF-CEM leukemia): 0.287 µM
TGI (CCRF-CEM leukemia): 1.33 µM
GI50 (HOP-62 NSCLC): 15.8 µM
TGI (HOP-62 NSCLC): 33.2 µM
GI50 (HT29 colon): 2.04 µM
TGI (HT29 colon): 4.86 µM
GI50 (UACC-62 melanoma): 1.76 µM
TGI (UACC-62 melanoma): 3.75 µM
GI50 (MDA-MB-468 breast): 1.43 µM
TGI (MDA-MB-468 breast): 2.99 µM
GI50 (KM12 colon): 8.37 µM
TGI (KM12 colon): 23.4 µM
GI50 (CAKI-1 renal): 1.53 µM
TGI (CAKI-1 renal): 3.15 µM
GI50 (LOX IMVI melanoma): 1.23 µM
TGI (LOX IMVI melanoma): 2.58 µM
GI50 (TK-10 renal): 1.73 µM
TGI (TK-10 renal): 3.44 µM
GI50 (SK-MEL-28 melanoma): 1.71 µM
TGI (SK-MEL-28 melanoma): 3.14 µM
GI50 (MDA-MB-231 breast): 1.66 µM
TGI (MDA-MB-231 breast): 3.15 µM
GI50 (A549 NSCLC): 13.5 µM
TGI (A549 NSCLC): 32.3 µM
GI50 (NCI-H522 lung): 1.31 µM
TGI (NCI-H522 lung): 2.77 µM
GI50 (HCT-15 colon): 1.45 µM
TGI (HCT-15 colon): 3.18 µM
GI50 (NCI-H460 lung): 3.13 µM
TGI (NCI-H460 lung): 12.1 µM
GI50 (SF-295 CNS): 11.3 µM
TGI (SF-295 CNS): 23.4 µM
GI50 (U251 CNS): 15.5 µM
TGI (U251 CNS): 31.2 µM
GI50 (SK-OV-3 ovarian): 17.2 µM
TGI (SK-OV-3 ovarian): 33.3 µM
GI50 (HOP-92 NSCLC): 2.27 µM
TGI (HOP-92 NSCLC): 6.37 µM
GI50 (IGROV1 ovarian): 1.96 µM
TGI (IGROV1 ovarian): 3.75 µM
GI50 (ACHN renal): 1.65 µM
TGI (ACHN renal): 3.01 µM
GI50 (OVCAR-5 ovarian): 2.83 µM
TGI (OVCAR-5 ovarian): 9.59 µM
GI50 (A498 renal): 16.9 µM
TGI (A498 renal): 30.7 µM
GI50 (MALME-3M melanoma): 1.65 µM
TGI (MALME-3M melanoma): 3.03 µM
GI50 (OVCAR-3 ovarian): 1.63 µM
TGI (OVCAR-3 ovarian): 3.23 µM
GI50 (HCT-116 colon): 1.52 µM
TGI (HCT-116 colon): 3.62 µM
GI50 (OVCAR-4 ovarian): 2.67 µM
TGI (OVCAR-4 ovarian): 7.84 µM
GI50 (BT-549 breast): 1.81 µM
TGI (BT-549 breast): 3.42 µM
GI50 (NCI/ADR-RES ovarian): 2.35 µM
TGI (NCI/ADR-RES ovarian): 5.7 µM
GI50 (T-47D breast): 1.87 µM
TGI (T-47D breast): 4.41 µM
GI50 (NCI-H226 lung): 12.5 µM
TGI (NCI-H226 lung): 30.5 µM
GI50 (UACC-257 melanoma): 1.89 µM
TGI (UACC-257 melanoma): 4.24 µM
GI50 (NCI-H23 lung): 1.76 µM
TGI (NCI-H23 lung): 3.55 µM
GI50 (SF-268 CNS): 2.65 µM
TGI (SF-268 CNS): 8.81 µM
GI50 (SNB-75 CNS): 3.86 µM
TGI (SNB-75 CNS): 17 µM
GI50 (EKVX NSCLC): 1.98 µM
TGI (EKVX NSCLC): 4.21 µM
GI50 (MOLT-4 leukemia): 1.45 µM
TGI (MOLT-4 leukemia): > 100 µM
GI50 (OVCAR-8 ovarian): 3.09 µM
TGI (OVCAR-8 ovarian): 10.7 µM
